One experiment concerns the target T1, carbamoylytic enzyme (Enzyme II, carbamoylase) (Agrobacterium radiobacter, UniProt Q44185).
T1 construct: endogenous in cells; host or cells: Agrobacterium sp. cells, acetone-dried powder (crude, enzyme not purified)
Nature of the experiment: enzymic activity test of acetonic powder of Agrobacterium sp. cells on N-carbamoyl aminoacid substrates (NH4+ by phenol-hypochlorite method). Conditions: 20 mM substrate in pyrophosphate buffer 0.1 M pH 7.7, acetonic powder, 40° C., 1-hour incubation, under nitrogen. It counts as biochemical. On the procedure: Cells of Agrobacterium sp. strain were prepared as described in Example 1. A few grams of moist cellule slurry was slurried in pyrophosphate buffer (0.1 M pH 7.7) and subjected to acetonic treatment in the cold.
After removing acetone by filtration, the acetonic preparation thus obtained was dried to constant weight in vacuum at 35° C. The dried material was homogenized in a mortar and powder thus obtained was used for the enzymic activity tests.
The caetonic powder was assayed on the following substrates: N-carbamoyl-D-(-)-alanine, N-carbamoyl-D(-) valine, N-carbamoyl-D-(-)glutamic acid, N-carbamoyl-D(-)-parahydroxyphenylglycine,N-carbamoyl-D(-)-paramethoxyphenylglycine, N-carbamoyl-D-(-)-phenylglycine, N-carbamoyl-L(+)-phenylglycine, N-carbamoyl-D(-)-phenylalanine, N-carbamoyl-L(+)-glutamic acid and N-carbamoyl-D(-) (2-thienyl)-glycine.
Thus, 20 mM solution were prepared of each carbamoyl derivative in pyrophosphate buffer 0.1 M pH 7.7, and, to 10 mls of each solution there was added an adequate quantity of acetonic powder, equal for each substrate.
The incubation was carried out under a UPP nitrogen blanket with stirring at a temperature of 40° C. After 1-hour incubation, the quantity of the produced aminoacid was measured by determining in the reaction mixtures the concentration of the NH4^+ ion which has been reached, with the phenol-hypochlorite method indicated in Example 2.
T1 sequence (Q44185 whole entry): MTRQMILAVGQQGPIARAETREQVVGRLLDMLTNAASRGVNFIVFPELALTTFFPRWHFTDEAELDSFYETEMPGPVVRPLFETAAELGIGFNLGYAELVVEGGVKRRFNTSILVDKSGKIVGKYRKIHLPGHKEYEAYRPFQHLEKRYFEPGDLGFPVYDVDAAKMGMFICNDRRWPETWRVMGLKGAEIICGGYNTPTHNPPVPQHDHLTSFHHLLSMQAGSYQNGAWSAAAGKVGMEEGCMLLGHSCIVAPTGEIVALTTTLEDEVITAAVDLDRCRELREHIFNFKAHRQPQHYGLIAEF
Consider `NC(=O)N[C@@H](C(=O)O)c1cccs1` [N-carbamoyl-D(-)-(2-thienyl)glycine], for which the “% ACTIVITY (hydrolytic activity, assuming as 100 the activity against N-carbamoyl-D(-)-parahydroxyphenylglycine)” value (shortened to “% ACTIVITY”) worked out at 40.7%.

`NC(=O)N[C@@H](C(=O)O)c1ccc(O)cc1` [N-carbamoyl-D(-)-parahydroxyphenylglycine]: the “% ACTIVITY” value came to 100.0%.

Regarding `COc1ccc([C@@H](NC(N)=O)C(=O)O)cc1` [N-carbamoyl-D(-)-paramethoxyphenylglycine], the “% ACTIVITY” value turned out to be 40.0%.

As to `NC(=O)N[C@H](Cc1ccccc1)C(=O)O` [N-carbamoyl-D(-)-phenylalanine], the “% ACTIVITY” value is on record as 50.0%.

On to `NC(=O)N[C@@H](C(=O)O)c1ccccc1` [N-carbamoyl-D(-)-phenylglycine], for which the “% ACTIVITY” value turned out to be 81.25%.

On to `CC(C)[C@@H](NC(N)=O)C(=O)O` [N-carbamoyl-D(-)-valine], for which the “% ACTIVITY” value came to 34.25%.

In the case of `NC(=O)N[C@H](CCC(=O)O)C(=O)O` [N-carbamoyl-D(-)glutamic acid], the “% ACTIVITY” value worked out at 21.7%.

Turning to `C[C@@H](NC(N)=O)C(=O)O` [N-carbamoyl-D-(-)-alanine], the “% ACTIVITY” value was 57.5%.

As for `NC(=O)N[C@H](C(=O)O)c1ccccc1` [N-carbamoyl-L(+)-phenylglycine], the “% ACTIVITY” value is on record as 0%.

Regarding `NC(=O)N[C@@H](CCC(=O)O)C(=O)O` [N-carbamoyl-L(+)glutamic acid], the “% ACTIVITY” value came out at 0%.

Still in this experiment, the particulars now being: 20 mM substrate, pyrophosphate buffer 0.1 M pH 7.7, 40° C., 1-hour incubation.
Take `NC(=O)N[C@@H](C(=O)O)c1ccc(O)cc1` [N-carbamoyl-D(-)-parahydroxyphenylglycine]: the “activity of the carbamoylytic enzyme, ranking among substrates” value is recorded as “highest activity”.

These data come from US4312948A, “Enzymic microbiological process for producing optically active aminoacids starting from hydantoins and/or racemic carbamoyl derivatives” (priority 1978, dated 1982).
